The source of these data is ChEMBL document CHEMBL5113373, “Tryptophan derived natural marine alkaloids and synthetic derivatives as promising antimicrobial agents” (Eur J Med Chem, 2021).

≈ marks a conversion by molar mass, not a printed value.

One experiment relates to Bacillus subtilis. In words: Antibacterial activity against Bacillus subtilis assessed as bacterial growth inhibition. Format: functional, organism-based.
The subject of experiment [1] is Escherichia coli. In words: Antibacterial activity against Escherichia coli assessed as bacterial growth inhibition. Format: functional.
The test system of experiment [2] is Staphylococcus aureus. The experiment can be described thus: Antimicrobial activity against methicillin-resistant Staphylococcus aureus assessed as microbial growth inhibition by broth microdilution method. Format: functional.
Experiment [3] can be described thus: Inhibition of Methicillin-resistant Staphylococcus aureus pyruvate kinase assessed as measuring absorbance of NADH coupled to L-LDH using phospho enol pyruvate in presence of ADP by spectrophotometry.
Experiment [4] concerns Escherichia coli. In words: Antibiofilm activity against Escherichia coli K12 ER2718 assessed as inhibition of biofilm formation incubated for 24 hrs by crystal violet method. Format: functional, organism-based. The following applies: K12 ER2718, 24 h.
The test system of experiment [5] is Staphylococcus aureus. The experiment can be described thus: Antibiofilm activity against Staphylococcus aureus ATCC 29213 assessed as inhibition of biofilm formation incubated for 24 hrs by crystal violet method. Format: functional, organism-based. The following applies: ATCC 29213, 24 h.

Turning to `CO[C@@H]1c2c[nH]c3ccc(O)c(c23)C(c2c[nH]c3ccc(O)cc23)=N[C@@H]1C(C)=O`, the MIC with Bacillus subtilis and with Escherichia coli [1] was 41.1 µM (≈ 16 µg/mL) each time.
For `O=C1NC[C@@H](c2c[nH]c3cc(Br)ccc23)N[C@H]1c1c[nH]c2cc(Br)ccc12` (relative stereo) [CIS-3,4-DIHYDROHAMACANTHIN B], the MIC (as a rule, the lowest concentration found to suppress growth) with Staphylococcus aureus [2] stood at 0.016 µM (≈ 0.00781 µg/mL). Besides, the IC50 (commonly the concentration that gives 50% inhibition) in experiment [3] stood at 5.1 µM.
With `C=CC(C)(C)c1[nH]c2cc(Br)ccc2c1CCNC` [DESFORMYLFLUSTRABROMINE], the IC50 in the experiment on Escherichia coli [4] was determined as 174 µM; with Staphylococcus aureus [5], 70 µM.
